Assay results taken from PMC8341977, “Towards novel herbicide modes of action by inhibiting lysine biosynthesis in plants” (eLife, 2021).
Where two headings read alike, the source gives them in different places.

Legend:
[1] = molecular target: T1, AtDHDPS2 (dihydrodipicolinate synthase 2) (Arabidopsis thaliana, UniProt Q9FVC8); experiment: DHDPS–DHDPR coupled enzyme assay (NADPH oxidation); type: biochemical
T1 construct: gene DHDPS2; recombinant, fusion tag cleaved
T1 sequence (Q9FVC8 40-365): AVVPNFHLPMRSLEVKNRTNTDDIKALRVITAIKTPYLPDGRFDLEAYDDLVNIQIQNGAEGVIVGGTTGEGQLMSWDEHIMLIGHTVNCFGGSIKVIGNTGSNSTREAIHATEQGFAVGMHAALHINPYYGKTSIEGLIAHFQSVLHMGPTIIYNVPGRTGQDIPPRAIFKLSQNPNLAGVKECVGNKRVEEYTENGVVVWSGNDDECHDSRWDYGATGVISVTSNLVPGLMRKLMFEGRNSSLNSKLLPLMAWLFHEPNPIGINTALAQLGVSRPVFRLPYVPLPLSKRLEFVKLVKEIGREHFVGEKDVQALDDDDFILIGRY

[2] = molecular target: T2, AtDHDPS1 (dihydrodipicolinate synthase 1) (Arabidopsis thaliana, UniProt Q9LZX6); experiment: DHDPS–DHDPR coupled enzyme assay (NADPH oxidation); type: biochemical
T2 construct: gene DHDPS1; recombinant, fusion tag cleaved
T2 sequence (Q9LZX6 40-365): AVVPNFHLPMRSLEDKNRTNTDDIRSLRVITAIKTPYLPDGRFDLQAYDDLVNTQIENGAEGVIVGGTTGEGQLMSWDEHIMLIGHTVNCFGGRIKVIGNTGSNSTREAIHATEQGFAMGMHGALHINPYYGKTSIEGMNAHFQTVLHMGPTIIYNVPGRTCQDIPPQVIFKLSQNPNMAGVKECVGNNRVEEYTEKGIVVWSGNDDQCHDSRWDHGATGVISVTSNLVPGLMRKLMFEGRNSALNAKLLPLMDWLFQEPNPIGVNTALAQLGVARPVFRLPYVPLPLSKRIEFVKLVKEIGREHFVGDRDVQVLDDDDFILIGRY

Question: For `COc1ccc(C=C2SC(=O)N(CC(=O)O)C2=O)cc1` (stereo in doubt) [MBDTA-2, (Z)−2-(5-(4-methoxybenzylidene)−2,4-dioxothiazolidin-3-yl)acetic acid], which IC50 [1] is on record?
Answer: Its IC50 is 64 ± 1 µM.

Question: Which IC50 ([1]; read-out: IC50) does the source give for `COc1ccccc1/C=C1\SC(=O)N(CC(=O)O)C1=O` [MBDTA-1, (Z)−2-(5-(2-methoxybenzylidene)−2,4-dioxothiazolidin-3-yl)acetic acid] here?
Answer: Its IC50 is 116 ± 5.2 µM.

Question: And the IC50 [2]?
Answer: The IC50 was 126 ± 6.5 µM.
